Several values for one entry are separate records, joined by “and”; a condition that tells them apart may be missing. Identical values can stand only once.
Assays:
[1] = system: Colorado potato beetle 1st-4th instar larvae and adults; test: Contact toxicity to various development stages; format: in vivo, Leptinotarsa decemlineata; conditions: 48 h incubation, 40% (w/w) suspension
Procedure: The plant samples were prepared according to the procedure described above. Nine extracts were used in this study. The plants (Table 8) were all collected during spring and summer of 2002. Samples were dried at room temperature and were ground for 5 min in a mill (M 20 IKA Universal Mill, IKA Group). […] For the dose-mortality bioassay, H. lupulus extract stock suspension was prepared as described above, containing 50% (w/w) plant extract/water with 10% acetone, and diluted in distilled water containing 10% acetone (w/w) to produce solutions containing 2.5, 5, 10, 20 and 40% (w/w).
Extract contact effects were determined on 1st-4th instar larvae as well as adult beetles. Twenty individuals for each development stage were transferred to Whatman filter paper in 90 mm disposable Petri dishes. The plant extract suspensions were shaken for 1 min and 2 ml of extract suspension was applied to each batch using a Potter spray tower set at 10 PSI with a 0.7 mm diameter fine droplet spray nozzle. After spraying, the insects were left to dry for 10 min at room temperature before transferring into a 1 l glass jar with fresh potato leaflets. The insects were incubated at 28±2° C. and 16:8 hr photophase. Controls were treated with 2 ml sterile distilled water containing 10% acetone. Imidacloprid (CONFIDOR SL, Bayer) was used as a standard control and three groups of 20 insects were treated with 2 ml of imidacloprid at the manufacturer's recommended rate (1.5 μl/ml) in distilled water. Mortalities were recorded at 24 h intervals for 7 d. Data were submitted to a randomized complete block statistical analysis. Three replicates of each developmental stage were sprayed with a plant extract suspension, three were used as control in each trial and three trials were performed each consisting of 3 treatment replicates.
Screening data were corrected for mortality in the controls using Abbott's formula (Abbott, J Econ Entomol 18:265-267 (1925)) and then normalised using an arcsine transformation. Transformed data were analyzed using ANOVA (P<0.05) and Tukeys mean separation (P≦0.05). All statistical analyses were carried out using MINITAB Release 14. Colorado potato beetle mortality obtained from dose-mortality bioassay utilizing H. lupulus was corrected for control mortality using Abbott's formula (supra). The corrected mortality data were analyzed using POLO-PC to estimate LC50, LC90 and the regression line slopes. Homogeneity of the regression lines between various developmental stages were tested using the maximum likelihood approximation test (P≦0.05).

[2] = system: 3rd instar Colorado potato beetle larvae; test: Residual (stomach poison) toxicity bioassay on treated potato leaflets; format: in vivo, Leptinotarsa decemlineata; conditions: leaflets treated with 20% (w/w) extract
Procedure: Stomach poison effects of the thirty plant extracts were assed by morbidity assays using 3rd instar larvae fed on treated potato leaflets.
Leaflets were treated with 2 ml of each plant extract suspension in distilled water containing 10% acetone with the Potter Spray Tower set at 10 PSI with a 0.7 mm internal diameter nozzle. After treatment, the leaflets were dried at room temperature for about 5 min. The cut end of each leaflet petiole was covered with a 30×55 mm piece of sterile cotton wool, which was moistened with 2 ml of water containing 1% NPK (20-20-20) fertilizer. This treatment ensured that the excised leaflet remained green for at least 7 days. Treated leaflets were transferred into 1000 ml glass jars to which 20 3rd instar larvae were added before incubation as described above. Mortalities were assessed at 24 hr intervals for 7 days. Control leaflets were treated with 2 ml of distilled water containing 10% acetone and the standard imidacloprid control was used as described above. Each treatment was repeated three times per block and blocks were completed in a randomized complete block design.

[3] = system: 3rd instar Colorado potato beetle larvae; test: Contact toxicity bioassay (Potter spray tower), 3rd instar larvae; conditions: 2 ml of 40% (w/w) plant suspension
Procedure: Fifty grams of sample were placed into 1000 ml Erlemneyer flasks with 500 ml of methanol (Sigma). Flasks were covered with aluminum foil, placed on a horizontal shaker (HS 260 Basic, IKA Group) and shaken (120 oscillations/min for 24 h) in the dark. The suspension was filtered through two layers of cheese cloth, transferred into a 250 ml evaporating flask and excess methanol evaporated in a rotary evaporator (RV 05 Basic 1B, IKA Group) at 32±2° C. The resulting residue was weighted and eluted with sufficient distilled water containing 10% acetone (w/w) to yield a 40% (w/w) plant suspension.
Two ml of the distilled water containing 10% acetone was also applied to 20 larvae in each replicate as a negative control along with imidacloprid (CONFIDOR SL, Bayer) at manufacturer recommended rate as a positive control. After spraying, the larvae were transferred into 1000 ml glass jars and provided with fresh potato leaflets. The top of each jar was covered with cheese cloth and held at 28±2° C. and 16 h: 8 h light dark photo regime. Mortalities were recorded at 24 h intervals for 7 days. […] Each treatment was replicated three times within a trial and each trial was repeated three times.
Data were corrected for mortality in the controls using Abbotts formula and then normalized using arcsine transformation. Transformed data were analyzed using ANOVA (∝=0.05) and Tukeys mean separation (∝=0.05). […]

[4] = system: redbanded leafrollers, Argyrotaenia velutinana; test: Electroantennogram (EAG) responses of redbanded leafrollers; format: in vivo; conditions: 2 mg on filter paper
Procedure: (§1) Five natural-product sources were used per study. The plants (Table 1) were all collected from sandy lime soil during spring and summer of 2002 in Ta ? liçiftlik, Tokat, in a temperate region of Turkey, where the altitude is 600 m. Samples were dried at room temperature for 3 wk in the dark and subsequently were ground in a mill (M 20 IKA Universal Mill, IKA Group). Ground plants were stored in 2000-ml glass jars at 18±2° C. in the dark. Fifty-gram samples were placed into 1000-ml Erlenmeyer flasks with 500-ml of methanol (Sigma). […] The resulting residue was weighed and mixed with acetone to yield a 20% (w/w) plant suspension.
(§2) The EAG system and test protocols have been detailed by Stelinski et al. (2003 J. Chem. Ecol. 29: 403-422; Physiol. Entomol. 28: 97-107). Two milligrams of plant extracts (Table 1) or pheromone ((Z)11-14:Ac (lot #10010), Shin Etsu Tokyo, Japan) were diluted in acetone (20 μl total solution) and pipetted onto 1.4×0.5 cm strips of Whatman No. 1 filter paper. […] EAGs were measured as the maximum amplitude of depolarization elicited by 1-ml puffs of air through EAG-cartridges directed over live-insect preparations.
(§3) Male and female obliquebanded leafrollers and redbanded leafrollers were 2-4 d old when used for electroantennograms. […] For each sample tested, EAGs were recorded from ten moths of each sex. […]

[5] = system: obliquebanded leafrollers, Choristoneura rosaceana; test: Eight-arm olfactometer attraction study; format: in vivo; conditions: 25 μl of 20% w/w extract in acetone, counts after 24 h
Source text: Male or female obliquebanded leafrollers used in this study were 1-3 d old. They were reared as described above. Discs, 55 mm in diameter, were cut from the sticky liners of pheromone traps (LPD Scenturian Guardpost, Suterra, Bend, Oreg.) intended for catching Lepidoptera. Each sticky disc was cleaned with acetone and placed into sterile 90-mm disposable Petri dish. Twenty millimeter diameter discs, cut from Whatman Number 1 filter paper, were placed centrally on top of the 55-mm sticky discs. Twenty-five microliters of each plant extract, diluted in acetone (20% w/w), was applied to the central filter paper disc. In the control treatment, 25-μl of acetone was applied to the disc. In the positive control, 25-μl of the pheromone component (Z)11-14:Ac was applied. In addition to positive control and negative or non-treatment control discs, a three-component obliquebanded leafroller pheromone in a rubber septum was also used as a standard. The septa were loaded with 0.485 mg of (Z)- and 0.015 mg (E)-11-tetradecenyl acetates and 0.026 mg of (Z)-11-tetradecenol (Hill and Roelofs 1979). […]
For the olfactometer test, the number of male insects attracted by each treatment was expressed as a percentage of the total number of insects tested in each replicate. […] The transformed data were analyzed using single-factor ANOVA (Minitab Release 14) (P=0.05) followed by Tukey's test (P=0.05). […]

[6] = system: obliquebanded leafrollers, Choristoneura rosaceana; test: Electroantennogram (EAG) responses of obliquebanded leafrollers; format: in vivo; conditions: 2 mg on filter paper
Procedure: as §1, §2, §3

Row | SMILES | % Mortality ± SEM, contact toxicity ([1]; 1st Instar Larvae) [%] | % Mortality ± SEM, contact toxicity ([1]; 2nd Instar Larvae) | % Mortality ± SEM, contact toxicity ([1]; 3rd Instar Larvae) [%] | % Mortality ± SEM, contact toxicity ([1]; 4th Instar Larvae) | % Mortality ± SEM, contact toxicity ([1]; Adult) [a %] | Residual toxicities % (mean ± SEM) ([2]; 48 h incubation at 28 ± 2° C.) | Residual toxicities % (mean ± SEM) ([2]; 72 h incubation at 28 ± 2° C.) [a A %] | Mortality % (mean ± SEM) caused by contact effect ([3]; 24 h incubation at 28 ± 2° C.) [a A %] | Mortality % (mean ± SEM) caused by contact effect ([3]; 48 h incubation at 28 ± 2° C.) [a A %] | EAG responses (mV ± SE) upon stimulation with 1 ml of air through stimulus cartridge ([4]; females) [a mV] | EAG responses (mV ± SE) upon stimulation with 1 ml of air through stimulus cartridge ([4]; males) [a mV] | Attraction (Mean ± SEM) % ([5]; females, listed as Pheromone on paper) | Attraction (Mean ± SEM) % ([5]; males) [bc %] | EAG responses (mV ± SE) upon stimulation with 1 ml of air through stimulus cartridge ([6]; females) [ab mV] | EAG responses (mV ± SE) upon stimulation with 1 ml of air through stimulus cartridge ([6]; males) [a mV]
1 | O=[N+]([O-])NC1=NCCN1Cc1ccc(Cl)nc1 [Imidacloprid] | 100 | 94.8% and 94.82 ± 3.05 a % | 100 | 11.5% and 11.57 ± 0.11 b % | 44.37 ± 3.32 | 71.9% and 71.89 ± 0.25 a A % | 83.64 ± 0.23 | 100 ± 0.00 | 100 ± 0.00 |  |  |  |  |  | 
2 | CC/C=C\CCCCCCCCCCOC(C)=O [Pheromone, (Z)11-14:Ac] |  |  |  |  |  |  |  |  |  | 0.43 ± 0.06 | 5.42 ± 0.40 | 1.1% and 1.14 ± 1.12 b % | 4.05 ± 1.66 | 0.45 ± 0.06 | 4.87 ± 0.32

Source: patent publication US9271504B2, “Insecticidal compositions and uses thereof” (Board of Trustees of Michigan State University, priority 2005, dated 2016)
